Values after ≈ are worked out from the molar mass of the structure shown.
Tests used:
Type in all cases: functional
Pseudomonas aeruginosa [1] = assay: Antimicrobial activity against Pseudomonas aeruginosa clinical isolates assessed as resistant isolates by agar dilution method
Pseudomonas aeruginosa [2] = assay: Antimicrobial activity against Pseudomonas aeruginosa urine isolate 4706 containing PFGE clone A expressing beta-lactamase IMP-15 by broth microdilution method
Pseudomonas aeruginosa [3] = assay: Antimicrobial activity against Pseudomonas aeruginosa blood isolate 4667 containing PFGE clone A expressing beta-lactamase IMP-15 by broth microdilution method
Pseudomonas aeruginosa [4] = assay: Antimicrobial activity against Pseudomonas aeruginosa pleural fluid isolate 4679 containing PFGE clone A1 expressing beta-lactamase IMP-15 by broth microdilution method
Pseudomonas aeruginosa [5] = assay: Antimicrobial activity against Pseudomonas aeruginosa blood isolate 4677 containing PFGE clone A expressing beta-lactamase IMP-15 by broth microdilution method
Pseudomonas aeruginosa [6] = assay: Antimicrobial activity against Pseudomonas aeruginosa urine isolate 4698 containing PFGE clone A expressing beta-lactamase IMP-15 by broth microdilution method
Pseudomonas aeruginosa [7] = assay: Antimicrobial activity against Pseudomonas aeruginosa blood isolate 4659 containing PFGE clone A2 expressing beta-lactamase IMP-15 by broth microdilution method
Pseudomonas aeruginosa [8] = assay: Antimicrobial activity against Pseudomonas aeruginosa catheter isolate 4680 containing PFGE clone A2 expressing beta-lactamase IMP-15 by broth microdilution method
Pseudomonas aeruginosa [9] = assay: Antimicrobial activity against Pseudomonas aeruginosa secretion isolate 4658 containing PFGE clone A1 expressing beta-lactamase IMP-15 by broth microdilution method
Pseudomonas aeruginosa [10] = assay: Antimicrobial activity against Pseudomonas aeruginosa secretion isolate 4703 containing PFGE clone A1 expressing beta-lactamase IMP-15 by broth microdilution method
Pseudomonas aeruginosa [11] = assay: Antimicrobial activity against Pseudomonas aeruginosa secretion isolate 4682-1 containing PFGE clone A expressing beta-lactamase IMP-15 by broth microdilution method
Pseudomonas aeruginosa [12] = assay: Antimicrobial activity against Pseudomonas aeruginosa urine isolate 4663 expressing beta-lactamase IMP-15 by broth microdilution method
Pseudomonas aeruginosa [13] = assay: Antimicrobial activity against Pseudomonas aeruginosa secretion isolate 4688 containing PFGE clone A1 expressing beta-lactamase IMP-15 by broth microdilution method
Pseudomonas aeruginosa [14] = assay: Antimicrobial activity against Pseudomonas aeruginosa catheter isolate 4696 containing PFGE clone A expressing beta-lactamase IMP-15 by broth microdilution method
Pseudomonas aeruginosa [15] = assay: Antimicrobial activity against Pseudomonas aeruginosa blood isolate 4677 containing PFGE clone A expressing beta-lactamase IMP-15 by broth microdilution method in presence of beta-lactamase inhibitor Tazobactam
Pseudomonas aeruginosa [16] = assay: Antimicrobial activity against Pseudomonas aeruginosa secretion isolate 4682-1 containing PFGE clone A expressing beta-lactamase IMP-15 by broth microdilution method in presence of beta-lactamase inhibitor Tazobactam
Pseudomonas aeruginosa [17] = assay: Antimicrobial activity against Pseudomonas aeruginosa blood isolate 4659 containing PFGE clone A2 expressing beta-lactamase IMP-15 by broth microdilution method in presence of beta-lactamase inhibitor Tazobactam
Pseudomonas aeruginosa [18] = assay: Antimicrobial activity against Pseudomonas aeruginosa catheter isolate 4680 containing PFGE clone A2 expressing beta-lactamase IMP-15 by broth microdilution method in presence of beta-lactamase inhibitor Tazobactam
Pseudomonas aeruginosa [19] = assay: Antimicrobial activity against Pseudomonas aeruginosa clinical isolates assessed as resistant isolates by agar dilution method in presence of beta-lactamase inhibitor Tazobactam
Pseudomonas aeruginosa [20] = assay: Antimicrobial activity against Pseudomonas aeruginosa blood isolate 4667 containing PFGE clone A expressing beta-lactamase IMP-15 by broth microdilution method in presence of beta-lactamase inhibitor Tazobactam
Pseudomonas aeruginosa [21] = assay: Antimicrobial activity against Pseudomonas aeruginosa urine isolate 4698 containing PFGE clone A expressing beta-lactamase IMP-15 by broth microdilution method in presence of beta-lactamase inhibitor Tazobactam; conditions: isolate 4698, Urine
Pseudomonas aeruginosa [22] = assay: Antimicrobial activity against Pseudomonas aeruginosa catheter isolate 4696 containing PFGE clone A expressing beta-lactamase IMP-15 by broth microdilution method in presence of beta-lactamase inhibitor Tazobactam
Pseudomonas aeruginosa [23] = assay: Antimicrobial activity against Pseudomonas aeruginosa urine isolate 4663 expressing beta-lactamase IMP-15 by broth microdilution method in presence of beta-lactamase inhibitor Tazobactam; conditions: isolate 4663, Urine
Pseudomonas aeruginosa [24] = assay: Antimicrobial activity against Pseudomonas aeruginosa urine isolate 4706 containing PFGE clone A expressing beta-lactamase IMP-15 by broth microdilution method in presence of beta-lactamase inhibitor Tazobactam; conditions: isolate 4706, Urine
Pseudomonas aeruginosa [25] = assay: Antimicrobial activity against Pseudomonas aeruginosa secretion isolate 4688 containing PFGE clone A1 expressing beta-lactamase IMP-15 by broth microdilution method in presence of beta-lactamase inhibitor Tazobactam
Pseudomonas aeruginosa [26] = assay: Antimicrobial activity against Pseudomonas aeruginosa pleural fluid isolate 4679 containing PFGE clone A1 expressing beta-lactamase IMP-15 by broth microdilution method in presence of beta-lactamase inhibitor Tazobactam; conditions: isolate 4679, Pleural fluid
Pseudomonas aeruginosa [27] = assay: Antimicrobial activity against Pseudomonas aeruginosa secretion isolate 4658 containing PFGE clone A1 expressing beta-lactamase IMP-15 by broth microdilution method in presence of beta-lactamase inhibitor Tazobactam
Pseudomonas aeruginosa [28] = assay: Antimicrobial activity against Pseudomonas aeruginosa secretion isolate 4703 containing PFGE clone A1 expressing beta-lactamase IMP-15 by broth microdilution method in presence of beta-lactamase inhibitor Tazobactam

Row | Compound | Activity (Pseudomonas aeruginosa [1]) | MIC (Pseudomonas aeruginosa [2]; isolate 4706, Urine) | MIC (Pseudomonas aeruginosa [3]) | MIC (Pseudomonas aeruginosa [4]) | MIC (Pseudomonas aeruginosa [5]) | MIC (Pseudomonas aeruginosa [6]; isolate 4698, Urine) | MIC (Pseudomonas aeruginosa [7]) | MIC (Pseudomonas aeruginosa [8]) | MIC (Pseudomonas aeruginosa [9]) | MIC (Pseudomonas aeruginosa [10]) | MIC (Pseudomonas aeruginosa [11]) | MIC (Pseudomonas aeruginosa [12]; isolate 4663, Urine) | MIC (Pseudomonas aeruginosa [13]) | MIC (Pseudomonas aeruginosa [14]) | other results
1 | C[C@@H](O)[C@H]1C(=O)N2C(C(=O)O)=C(SCCNC=N)C[C@H]12 [IMIPENEM ANHYDROUS] | 100% | 32 µg/mL (≈ 107 µM) | > 128 µg/mL | 128 µg/mL (≈ 428 µM) | > 128 µg/mL | > 128 µg/mL | > 128 µg/mL | 128 µg/mL (≈ 428 µM) | 128 µg/mL (≈ 428 µM) | > 128 µg/mL | 128 µg/mL (≈ 428 µM) | 32 µg/mL (≈ 107 µM) | > 128 µg/mL | 128 µg/mL (≈ 428 µM) | –
2 | C[C@@H](O)[C@H]1C(=O)N2C(C(=O)O)=C(S[C@@H]3CN[C@H](C(=O)N(C)C)C3)[C@H](C)[C@H]12 [MEROPENEM] | 87% | 128 µg/mL (≈ 334 µM) | 128 µg/mL (≈ 334 µM) | 128 µg/mL (≈ 334 µM) | 128 µg/mL (≈ 334 µM) | 128 µg/mL (≈ 334 µM) | 128 µg/mL (≈ 334 µM) | 128 µg/mL (≈ 334 µM) | 128 µg/mL (≈ 334 µM) | 128 µg/mL (≈ 334 µM) | 128 µg/mL (≈ 334 µM) | > 128 µg/mL | 128 µg/mL (≈ 334 µM) | 128 µg/mL (≈ 334 µM) | –
3 | CCN1CCN(C(=O)N[C@@H](C(=O)N[C@@H]2C(=O)N3[C@@H]2SC(C)(C)[C@@H]3C(=O)O)c2ccccc2)C(=O)C1=O [PIPERACILLIN] | 19% | 64 µg/mL (≈ 124 µM) | 64 µg/mL (≈ 124 µM) | 64 µg/mL (≈ 124 µM) | 64 µg/mL (≈ 124 µM) | 64 µg/mL (≈ 124 µM) | 64 µg/mL (≈ 124 µM) | 64 µg/mL (≈ 124 µM) | 64 µg/mL (≈ 124 µM) | 64 µg/mL (≈ 124 µM) | 64 µg/mL (≈ 124 µM) | 64 µg/mL (≈ 124 µM) | 64 µg/mL (≈ 124 µM) | 64 µg/mL (≈ 124 µM) | MIC (Pseudomonas aeruginosa [15]): 64 µg/mL; MIC (Pseudomonas aeruginosa [16]): 64 µg/mL; MIC (Pseudomonas aeruginosa [17]): 64 µg/mL; MIC (Pseudomonas aeruginosa [18]): 64 µg/mL; Activity (Pseudomonas aeruginosa [19]): 14%; MIC (Pseudomonas aeruginosa [20]): 64 µg/mL; MIC (Pseudomonas aeruginosa [21]): 64 µg/mL; MIC (Pseudomonas aeruginosa [22]): 64 µg/mL; MIC (Pseudomonas aeruginosa [23]): 64 µg/mL; MIC (Pseudomonas aeruginosa [24]): 64 µg/mL; MIC (Pseudomonas aeruginosa [25]): 64 µg/mL; MIC (Pseudomonas aeruginosa [26]): 64 µg/mL; MIC (Pseudomonas aeruginosa [27]): 64 µg/mL; MIC (Pseudomonas aeruginosa [28]): 64 µg/mL
4 | GENTAMICIN | 54% | – | 128 µg/mL | 128 µg/mL | > 128 µg/mL | – | > 128 µg/mL | 128 µg/mL | 128 µg/mL | > 128 µg/mL | > 128 µg/mL | – | > 128 µg/mL | > 128 µg/mL | MIC (Pseudomonas aeruginosa [2]): > 128 µg/mL; MIC (Pseudomonas aeruginosa [6]): > 128 µg/mL; MIC (Pseudomonas aeruginosa [12]): 128 µg/mL
